The text below walks through data of patent US20040241706A1, “Highly specific modulators of GTPases for target validation” (IRM, LLC, priority 2002, published 2004).

Numbering of substitutions follows the chain as printed.

One test concerns the target T1, GTPase mutant N116C (Homo sapiens, UniProt P01112, N116C).
T1 construct: made in house; host or cells: E. coli BL21-Gold, pGEX vector
Kind of test: Ras inhibitor / guanine nucleotide exchange assay with 3H-GDP, mutant N116C. The class given is binding. The settings on record: FIG. 17. From the text:
(§1) One exemplary assay which can be used are Ras “inhibition” or “guanine nucleotide exchange” assays, as schematically illustrated in FIG. 8, and described in detail in the Examples hereinbelow. The assay detects inhibition of wild-type and mutant Ras proteins by using ^3H-labelled GDP and cold (non-tritiated) synthetic Ras inhibitors.
FIG. 15 provides a bar chart depicting the ability of various guanosine-based modulators to displace radiolabeled GDP from the GTPase mutant N116C.
FIGS. 16 and 17 graphically illustrates the inhibitory effect of the C-6 or N-7 substituted GMP-scaffold modulators on the double mutant N116G-T114C and the mutant N116C, respectively. […] The inhibitory effect was in the range of approximately 50-80%. […]
(§2) For example, purified mutant Ras (19A-116A) or wild type H-Ras protein (0.5 to 20 μg) was incubated in 40 μL of GTP exchange buffer (50 mM Tris-HCl pH 7.5, 50 mM NaCl, 5 mM EDTA, 1 mM DTT, 1 mg/mL BSA) containing either DMSO, GTP (100 μM) or a modulator (100 μM) for 30 min at 25° C. […] Filters were dried and the bound radioactivity was measured by scintillation counting (Beckman, #LS6500).
(§3) Cold GDP was used as a positive control. […] All of the measurements are in comparison to a background radioactivity count, such that the level of inhibition for a given compound was determined by the number of counts in comparison to the control. […]

The target of another test is T2, single mutant N116G Ras (Homo sapiens, UniProt P01112, N116G).
T2 construct: made in house; host or cells: E. coli BL21-Gold, pGEX vector
The experiment in a line: Ras inhibitor / guanine nucleotide exchange assay with 3H-GDP, single mutant N116G. Particulars: FIG. 12 panel B. Type of test: binding.
Source text: as §1
FIG. 12 provides the inhibitor assay results for compounds 43 through 45 (e.g, respectively) as compared to the positive control GTP, for the wild-type Ras protein (panel A) and the single mutant N116G (SEQ ID No. 7). […] Thus, substitution of the N116 residue with a glycine appears to be a favorable mutation leading to expansion of the GTP binding pocket. […]
as §2, §3

The next test concerns the target T3, wild type H-Ras (Homo sapiens, UniProt P01112).
T3 construct: made in house; host or cells: E. coli BL21-Gold, pGEX vector
Kind of test: Ras inhibitor / guanine nucleotide exchange assay with 3H-GDP, wild type. Type of test: binding. Particulars: at a concentration of 100 μM.
Source text: as §1
The GTPase modulators of the present invention were screened against wild-type and/or mutant GTPases for their effectiveness as GTPase inhibitors. […]
as §2
Cold GDP was used as a positive control. […] All of the measurements are in comparison to a background radioactivity count, such that the level of inhibition for a given compound was determined by the number of counts in comparison to the control. Thus, a high radioactivity count is indicative of a high level of binding between the mutant GTPase and the radioactive GDP.

The target in test [1] is T4, mutant enzyme (19A-116A) Ras binding to the Ras binding domain (RBD) of the Raf kinase (Homo sapiens, UniProt P01112, L19A/N116A).
T4 construct: GST (N); made in house; host or cells: E. coli BL21-Gold, pGEX vector (Ras)
Kind of test: Effector binding assay: pull-down with Ras binding domain (RBD) of Raf kinase, western blot. The class given is biochemical. Particulars: FIG. 35. Here is the method: The ability of the mutant enzyme (19A-116A) to bind to a known effector of H-Ras was confirmed. Using the Ras binding domain (RBD) of the Raf kinase, the ability of the mutant enzyme to undergo a conformational change upon GTP binding, and, thus, to bind the effector was determined. In brief, purified mutant or wild-type proteins (150 ng) were incubated in 1 mL of loading buffer (100 mM Tris-HCl pH 7.5, 2 mM EDTA, 1 mM DTT, 1 mg/mL BSA) in the presence of 10 mM of GDP, GTP, 7 d or both GTP and 7 d for 15 min at 25° C. for loading the protein with the appropriate nucleotides. Following loading, MgCl2 (20 mM) was added along with GST-RBD (1.2 mg), comprising Raf kinase amino acids 53-131, bound to glutathione sepharose beads. The resulting suspensions were incubated with rotation for 30 min at 4° C. The beads were then washed three times with 1 mL of washing buffer (50 mM Tris-HCl pH 7.5, 50 mM NaCl, 20 mM MgCl2, 1 mM DTT) to remove unbound H-Ras proteins. The beads were boiled in SDS loading buffer, and the samples were separated by electrophoresis. Following transfer, the PVDF membrane was probed with anti-H-Ras and the amount of H-Ras bound to the RBD glutathione sepharose beads was visualized using anti-rabbit HRP in conjunction with WestPico (Pierce).
On the technique in general: A western blot detects proteins with antibodies after separation by electrophoresis.

The target in another test is T5, mutant Ras (19A-116A) (Homo sapiens, UniProt P01112, L19A/N116A).
T5 construct: made in house; host or cells: E. coli BL21-Gold, pGEX vector
Kind of test: Ras inhibitor / guanine nucleotide exchange assay with 3H-GDP, double mutant L19A-N116A. The settings on record: for IC50: mutant (19A-116A) Ras, FIG. 34, read-out: IC50 (concentration at which 50% inhibition of GTP binding is observed); for displacement of radioactive GDP from the mutant GTPase: remaining radioactivity count. Type of test: binding.
Source text: as §1
FIG. 11 graphically illustrates the inhibition of double mutant L19A-N116A (SEQ ID No. 11) by various C-6 substituted GTP moieties (compounds 39 through 42, presented as a-d in the figure), as compared to the negative control (nothing added to displace the radiolabeled GDP), positive control (cold GDP), and background count (no GTPase enzyme added).
The GTPase modulators of the present invention were screened against wild-type and/or mutant GTPases for their effectiveness as GTPase inhibitors. Ras inhibitor assays were performed to test the activity of the synthesized modulators against various wild-type and/or mutant GTPases of interest, and/or to compare the different modulators based upon the relative observed level of inhibition.
For example, purified mutant Ras (19A-116A) or wild type H-Ras protein (0.5 to 20 μg) was incubated in 40 μL of GTP exchange buffer (50 mM Tris-HCl pH 7.5, 50 mM NaCl, 5 mM EDTA, 1 mM DTT, 1 mg/mL BSA) containing either DMSO, GTP (100 μM) or a modulator (100 μM) for 30 min at 25° C. This pre-incubation was followed by the additions of 2 μCi ^3H-GDP (NEN, #NET966) and, 10 min later, 25 mM MgCl2. After another 5 min of incubation, the reaction mixture was applied to a nitrocellulose filter (Millipore, #HAWP02500) pre-wetted with wash buffer (50 mM Tris-HCl pH 7.5, 10 mM MgCl2), the filter was then washed using 10 mL of wash buffer. Filters were dried and the bound radioactivity was measured by scintillation counting (Beckman, #LS6500).
Cold GDP was used as a positive control. Since the positive control naturally replaces the radioactive GDP in both the wild-type and mutant GTPase proteins, significant drops in radiolabeling are observed. Water was used as a negative control. All of the measurements are in comparison to a background radioactivity count, such that the level of inhibition for a given compound was determined by the number of counts in comparison to the control. Thus, a high radioactivity count is indicative of a high level of binding between the mutant GTPase and the radioactive GDP.

The next test addresses T6, mutant Rap1B enzyme (Homo sapiens, UniProt P61224, L19A/N116A).
T6 construct: made in house; host or cells: E. coli BL21-Gold, pGEX-4T
T6 sequence (P61224 1-184 L19A/N116A): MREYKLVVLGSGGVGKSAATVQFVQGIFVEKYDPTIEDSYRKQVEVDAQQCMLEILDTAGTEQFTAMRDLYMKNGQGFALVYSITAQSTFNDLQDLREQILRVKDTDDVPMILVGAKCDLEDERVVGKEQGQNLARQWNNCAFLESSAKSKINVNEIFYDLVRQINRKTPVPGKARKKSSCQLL
The experiment in a line: Selective binding to mutant Rap1B (alanine at positions 19 and 116). The settings on record: FIG. 33B. An excerpt:
(§4) To confirm the general applicability of the methods and compositions of the present invention in the context of GTPases other than H-Ras, alanine substitutions at amino acids corresponding to positions 19 and 116 of Ras were introduced into the Rap1B GTPase. As shown in the alignment of Table 1, the identical amino acid residues, i.e., leucine at position 19, and asparagine at position 116, are present in Rap1B.
(§5) The mutant Rap1B protein construct was made as described above with respect to the Ras mutant proteins. All mutant proteins were made in the pGEX-4T bacterial expression system using the Quickchange protocol […] according to the manufacturer's instructions. Mutant Rap1B cDNAs were transformed individually in BL21-Gold competent cells (Stratagene) according to the manufacturer's instructions. An overnight culture of BL21-Gold cells containing one of the GST-Rap1B plasmids described above was diluted 1:50 in Superbroth medium (Q-Biogene) supplemented with 50 mg/L carbenicillin. After it had grown to an OD=0.6, synthesis of the GST-Rap1B protein was induced by the addition of IPTG (50 mM) and by further incubation at 30° C. for 12 h. After centrifugation at 3,500 g for 15 min at 4° C., the cell pellet was frozen at −80° C. for 1 h. […] Protein concentration was determined by a Bradford assay and the protein purity was assessed by gel electrophoresis.

Another test deals with T7, wild-type Rap1B enzyme (Homo sapiens, UniProt P61224).
T7 construct: GST (N); made in house; host or cells: E. coli BL21-Gold, pGEX-4T (described for the mutant; inferred for the wild type)
T7 sequence (P61224 1-184): T6 sequence (P61224 1-184 L19A/N116A) with A19L, A116N
Kind of test: Selective binding, wild-type Rap1B. The settings on record: FIG. 33B.
Source text: as §4, §5

With “6-S-mercaptoguanosine-5′-phosphate [Compound 82]”, the “inhibitory effect on the N116C mutant” value against GTPase mutant N116C is 50-80%.

On to `Nc1nc(=S)c2ncn([C@@H]3O[C@H](COP(=O)(O)OP(=O)(O)OP(=O)(O)O)[C@@H](O)[C@H]3O)c2[nH]1` [Compound 45, 6-S-mercaptoguanosine-5′-triphosphate], for which the “inhibition of the mutant GTPase (decrease in radiolabel remaining bound)” value against single mutant N116G Ras is given as “significantly inhibit”.

On to `Nc1nc2c(c(CCc3ccccc3)cn2[C@@H]2O[C@H](COP(=O)(O)OP(=O)(O)O)[C@@H](O)[C@H]2O)c(=O)[nH]1` [Compound 60, 7-deaza-7-(2″-phenyl)ethyl guanosine-5′-diphosphate], for which the “inhibition of wild-type H-Ras” value at wild type H-Ras is recorded as “does not inhibit”. Further, in test [1], the “effector (Raf RBD) binding of the mutant enzyme” value is “prevents effector binding”. Also, on mutant Ras (19A-116A), the IC50 worked out at 300 nM and the “displacement of radioactive GDP from the mutant GTPase” value is “displaced the radioactive GDP”. The “potency relative to GDP at displacing GTP from the mutant GTPase protein” value at mutant Ras (19A-116A) (ratio of IC50 values) is 5 times. Also, at mutant Rap1B enzyme, the “binding to the mutant Rap1B enzyme” value is recorded as “bind tightly”. The “effect on the wild-type Rap1B enzyme” value on wild-type Rap1B enzyme is on record as “negligably affecting”.

As for (2-phenyl)ethyl-GTP [Compound 52], the “effector (Raf RBD) binding of the mutant enzyme” value in test [1] is “prompts effector binding”. At mutant Ras (19A-116A), the “displacement of radioactive GDP from the mutant GTPase” value is reported as “displaced the radioactive GDP”. Also, the “binding to the mutant Rap1B enzyme” value at mutant Rap1B enzyme is listed as “bind tightly”. Also, on wild-type Rap1B enzyme, the “effect on the wild-type Rap1B enzyme” value is listed as “negligably affecting”.

On to `C=CCOc1nc(N)nc2c1ncn2[C@@H]1O[C@H](COP(=O)(O)OP(=O)(O)OP(=O)(O)O)[C@@H](O)[C@H]1O` [Compound 43, 6-O-allyl guanosine-5′-triphosphate], for which, on single mutant N116G Ras, the “inhibition of the mutant GTPase (decrease in radiolabel remaining bound)” value is reported as “significantly inhibit”.

For `Nc1nc2c(ncn2[C@@H]2O[C@H](COP(=O)(O)OP(=O)(O)O)[C@@H](O)[C@H]2O)c(=O)[nH]1` [GDP, reference compound], the IC50 at mutant Ras (19A-116A) is approximately 1500 nM.
